# Data from the supplement of paper PMC10307832.
# Key:
# Assay in all cases: relative viability (nuclei count vs DMSO), 5 days (fraction); higher = more cells survive
# Ibrutinib + Alpelisib = compound: C=CC(=O)N1CCC[C@@H](n2nc(-c3ccc(Oc4ccccc4)cc3)c3c(N)ncnc32)C1 [Ibrutinib] + Cc1nc(NC(=O)N2CCC[C@H]2C(N)=O)sc1-c1ccnc(C(C)(C)C(F)(F)F)c1 [Alpelisib] (partner 2 µM)
# Method in brief: (§1)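 Lung cancer cell lines were seeded in 1536-well plates and dosed by pin tool the next day, with either a single drug or a fixed anchor-drug dose combined with five library-drug doses (not always all listed) spaced in √10 steps. Five days later, one step fixed the cells and stained their nuclei (final 0.05% Triton X-100, 1% formaldehyde, 1 ug/ml Hoechst), and nuclei were counted on 4× images. Relative viability is the nuclei count in treated wells divided by the count in vehicle wells, and each value is the median of duplicate plates.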
# BMX-IN-1 + Luminespib = compound: C=CC(=O)Nc1cc(-n2c(=O)ccc3cnc4ccc(-c5ccc(NS(C)(=O)=O)cc5)cc4c32)ccc1C [BMX-IN-1] + CCNC(=O)c1noc(-c2cc(C(C)C)c(O)cc2O)c1-c1ccc(CN2CCOCC2)cc1 [Luminespib] (partner 0.01 µM)
# Method in brief: as §1
# PAC-1 + AZD7762 = compound: C=CCc1cccc(/C=N/NC(=O)CN2CCN(Cc3ccccc3)CC2)c1O [PAC-1] + NC(=O)Nc1cc(-c2cccc(F)c2)sc1C(=O)N[C@H]1CCCNC1 [AZD7762] (partner 0.2 µM)
# Method in brief: as §1
# BMX-IN-1 + Pemetrexed = compound: C=CC(=O)Nc1cc(-n2c(=O)ccc3cnc4ccc(-c5ccc(NS(C)(=O)=O)cc5)cc4c32)ccc1C [BMX-IN-1] + Nc1nc2[nH]cc(CCc3ccc(C(=O)N[C@@H](CCC(=O)O)C(=O)O)cc3)c2c(=O)[nH]1 [Pemetrexed] (partner 0.2 µM)
# Method in brief: as §1
Cell Line,relative viability (Ibrutinib + Alpelisib; first compound 0.005 µM),relative viability (Ibrutinib + Alpelisib; first compound 0.01581 µM),relative viability (Ibrutinib + Alpelisib; first compound 0.05 µM),relative viability (Ibrutinib + Alpelisib; first compound 0.1581 µM),relative viability (Ibrutinib + Alpelisib; first compound 0.5 µM),relative viability (BMX-IN-1 + Luminespib; first compound 0.02 µM),relative viability (BMX-IN-1 + Luminespib; first compound 0.2 µM),relative viability (BMX-IN-1 + Luminespib; first compound 0.6325 µM),relative viability (BMX-IN-1 + Luminespib; first compound 2 µM),relative viability (PAC-1 + AZD7762; first compound 0.02 µM),relative viability (PAC-1 + AZD7762; first compound 0.06325 µM),relative viability (PAC-1 + AZD7762; first compound 0.2 µM),relative viability (PAC-1 + AZD7762; first compound 2 µM),relative viability (BMX-IN-1 + Pemetrexed; first compound 0.02 µM),relative viability (BMX-IN-1 + Pemetrexed; first compound 0.2 µM),relative viability (BMX-IN-1 + Pemetrexed; first compound 0.6325 µM),relative viability (BMX-IN-1 + Pemetrexed; first compound 2 µM)
LC-2-ad,0.874,0.944,0.936,0.836,0.758,1.16,1.1,0.884,0.974,0.76,0.868,0.859,0.902,0.265,0.28,0.277,0.281
LCLC-97TM1,0.241,0.3,0.335,0.269,0.255,0.969,0.856,0.817,0.823,0.211,0.267,0.23,0.345,0.142,0.191,0.195,0.2
LCLC-103H,0.897,0.86,1.02,0.992,0.949,1.1,0.933,0.956,0.882,0.833,0.764,0.713,0.757,0.444,0.546,0.467,0.418
LK-2,–,0.837,1.36,0.938,0.89,0.197,0.219,0.176,0.207,0.488,0.315,0.327,0.416,0.163,0.256,0.254,0.225
LOU-NH91,0.652,0.597,0.592,0.67,0.48,0.3,–,0.363,0.315,0.742,0.761,0.768,0.71,–,0.406,0.392,0.366
LU99A,0.419,0.449,0.492,0.499,0.496,0.216,0.181,0.227,0.258,0.465,0.392,0.264,0.179,0.198,0.226,0.183,0.141
LXF-289,–,1.03,–,–,0.908,0.816,0.809,0.825,0.671,1.09,1.11,0.987,1.08,0.896,0.947,1.01,0.985
NCI-H520,0.892,0.797,1.04,1.09,0.759,0.243,0.231,0.243,0.218,–,–,–,–,0.762,0.853,0.686,0.762
NCI-H522,–,–,–,–,–,1.24,1.26,1.1,1.19,0.886,0.69,0.799,0.891,1,1.03,1.12,1.14
NCI-H661,0.467,0.68,0.358,0.524,0.216,1,0.916,1.03,0.863,–,–,–,–,1.02,0.96,0.961,0.899
NCI-H727,0.519,0.556,0.433,0.576,0.435,0.33,0.366,0.343,0.243,0.547,0.615,0.671,0.711,–,–,–,–
NCI-H1299,1.08,1.01,1.03,1.06,1.06,–,–,–,–,–,–,–,–,–,–,–,–
NCI-H1563,1,0.883,0.882,1.09,0.946,0.549,0.461,0.523,0.521,–,–,–,–,0.748,0.769,0.724,0.675
NCI-H1623,–,–,–,–,–,0.431,0.52,0.804,0.484,–,–,–,–,–,–,–,–
NCI-H1648,–,–,–,–,–,–,–,–,–,0.604,0.898,0.73,0.66,0.733,0.721,0.875,0.765
NCI-H1650,–,–,–,–,–,0.205,0.198,0.221,0.203,–,–,–,–,0.354,0.354,0.541,0.325
NCI-H1703,0.273,0.362,0.362,0.397,0.243,–,–,–,–,0.148,0.128,0.143,0.124,–,–,–,–
NCI-H2009,1.24,1.12,1.16,1.15,1.16,1.11,1.09,1.06,1.08,–,–,–,–,1.08,1.06,1.09,1.07
NCI-H2023,0.567,0.574,0.492,0.66,0.568,1.06,1.03,0.774,0.739,–,–,–,–,0.285,0.304,0.226,0.26
NCI-H2228,0.807,0.677,0.747,0.723,0.671,0.176,0.138,0.108,0.13,–,–,–,–,0.408,0.331,0.396,0.325
NCI-H2342,–,–,–,–,–,0.774,0.765,0.707,0.703,0.56,0.383,0.395,0.666,0.815,0.802,0.97,0.796
SK-LU-1,0.751,1.06,1.31,1.06,1.06,0.172,0.194,0.189,0.196,–,–,–,–,1.13,1.27,0.962,0.95
SW 900,–,–,–,–,–,0.172,0.182,0.165,0.179,–,0.744,0.637,0.678,0.529,0.5,0.485,0.425
SW 1573,0.632,0.807,0.844,0.749,0.811,0.28,0.221,0.225,0.205,–,–,–,–,0.901,1.02,0.931,0.666
UMC-11,0.957,1.01,0.958,1.01,0.964,1.17,1.24,1.19,1.03,–,–,–,–,0.92,0.792,0.754,0.754
